Molecular target: T1, PptAb-ACP complex (S2105A ACP) (Mycobacteroides abscessus, UniProt B1MD73)
T1 construct: gene MAB_3117c

CCNC(=N)NC(=O)Nc1c(CC)cccc1CC [compound 1, 1-[(2,6-diethylphenyl)-3-N-ethylcarbamimodoyl]urea]
X-ray crystallography, 2.5 Å, co-crystallisation: complex formed between PptAb and its cognate ACP domain in the presence of CoA
